Laboratory results reported in article PMC3340011 (Biophysical Chemistry, 2011).
Entries after “also recorded” stand apart in the source; their conditions may differ.

Experiments:
[1] = tested on: CaM1–148, sites I and II (N-domain); assay: Fluorescence-monitored equilibrium Ca^2+ titration, sites I and II of CaM1–148; assay type: binding, rat; conditions: for ΔΔG2 = ΔG2^app(CaM+CaV1.2p) − ΔG2^app(CaM): CaM1–148, sites I and II; for effect on Ca^2+-binding affinity of N-domain (in words): compared with IQ1644
[2] = tested on: CaM1–148, sites III and IV (C-domain); assay: Fluorescence-monitored equilibrium Ca^2+ titration, sites III and IV of CaM1–148; assay type: binding, rat; conditions: for ΔΔG2 = ΔG2^app(CaM+CaV1.2p) − ΔG2^app(CaM): CaM1–148, sites III and IV
[3] = target: CaM76–148 (C-domain of calmodulin) (Rattus norvegicus, UniProt P0DP29); assay: Fluorescence anisotropy titration of Fl-Cav1.2p with CaM C-domain; assay type: binding
[4] = tested on: CaM1–80, sites I and II; assay: Fluorescence-monitored equilibrium Ca^2+ titration, sites I and II of CaM1–80; assay type: binding, rat
[5] = tested on: CaM76–148, sites III and IV; assay type: binding, rat
[6] = tested on: CaM1–148, sites III and IV (C-domain); conditions: previous study; cited from earlier work
[7] = tested on: CaM1–148, sites I and II (N-domain); conditions: previous study; cited from earlier work
[8] = target: CaM1–80 (N-domain of calmodulin) (Rattus norvegicus, UniProt P0DP29); assay: Fluorescence anisotropy titration of Fl-Cav1.2p with CaM N-domain; assay type: binding; conditions: pre-IQ region, calcium-saturated
[9] = Calcium dissociation from fluorescent indicator dye; assay type: binding
[10] = no peptide, 2 μM CaM, pH 7.4, 22 °C, average ± SD
[11] = no peptide, pH 7.4, 22 °C, average ± SD

Row | Molecule | ΔΔG2 = ΔG2^app(CaM+CaV1.2p) − ΔG2^app(CaM) [1] [kcal/mol] | effect on Ca^2+-binding affinity of N-domain (in words) [1] | ΔΔG2 = ΔG2^app(CaM+CaV1.2p) − ΔG2^app(CaM) [2] [kcal/mol] | ΔΔG2 = ΔG2^app(CaM+CaV1.2p) − ΔG2^app(CaM) [4] [kcal/mol] | ΔΔG2 = ΔG2^app(CaM+CaV1.2p) − ΔG2^app(CaM) [5] [kcal/mol] | further results
1 | CC[C@H](C)[C@H](NC(=O)[C@H](CC(C)C)NC(=O)[C@H](Cc1ccccc1)NC(=O)[C@@H](NC(=O)[C@H](C)N)[C@@H](C)O)C(=O)N[C@@H](CCC(N)=O)C(=O)N[C@@H](CCC(=O)O)C(=O)N[C@@H](Cc1ccc(O)cc1)C(=O)N[C@@H](Cc1ccccc1)C(=O)N[C@@H](CCCNC(=N)N)C(=O)N[C@@H](CCCCN)C(=O)N[C@@H](Cc1ccccc1)C(=O)N[C@@H](CCCCN)C(=O)N[C@@H](CCCCN)C(=O)N[C@@H](CCCNC(=N)N)C(=O)N[C@@H](CCCCN)C(=O)N[C@@H](CCC(=O)O)C(=O)N[C@@H](CCC(N)=O)C(=O)NCC(=O)N[C@@H](CC(C)C)C(=O)N[C@H](C(=O)NCC(=O)N[C@@H](CCCCN)C(=O)N1CCC[C@H]1C(=O)N[C@@H](CO)C(=O)N[C@@H](CCC(N)=O)C(=O)O)C(C)C [IQ′1650] | -1.24 | much weaker effect | -3.63 | -0.82 | -3.35 | fold more favorable affinity for CaM76–148 than CaM1–80 ([3]; Ca^2+-saturated): about 100 fold; Kd ([3]; Kd (CaM dissociation from Fl-Cav1.2p), calcium-saturated, CaM76–148, 10 mM CaCl2, pH 7.4, 22 °C, limit): ≤ 10 nM
2 | CaM1–80: N-domain fragment of calmodulin, residues 1–80 | – | – | – | – | – | ΔG1^app (calcium binding) [4, 10]: -5.92 ± 0.38 kcal/mol; ΔG2^app (calcium binding) [4, 10]: -12.76 ± 0.09 kcal/mol
3 | CaM76–148: C-domain fragment of calmodulin, residues 76–148 | – | – | – | – | – | ΔG1^app (calcium binding) [5, 11]: -5.45 ± 0.51 kcal/mol; ΔG2^app (calcium binding) [5, 11]: -14.66 ± 0.13 kcal/mol
4 | H-ELRAIIKKIWKRTSMKLLDQVV-OH [C1614] | -1.10 | much weaker effect | -2.94 | -1.15 | -2.95 | effect on Ca^2+-binding affinity of C-domain of CaM1–148 [6]: increased the Ca^2+-binding affinity of the C-domain of CaM1–148; domain preference, (Ca^2+)2-C-domain ([3]; pre-IQ region, calcium-saturated): preferred C1614; effect on Ca^2+-binding affinity of N-domain of CaM1–148 [7]: there was not an effect on the N-domain
5 | H-FNATLFALVRTALRIKTEGNLE-OH [A1588] | -2.99 | – | -1.05 | -1.55 | -0.72 | effect on Ca^2+-binding affinity of C-domain (in words) [2]: weak effect; domain preference, (Ca^2+)2-N-domain [8]: bound preferentially to A1588; also recorded: higher affinity for CaM1–80 than for CaM76–148; also recorded: binding the N-domain of CaM more favorably than the C-domain
6 | XRhod5F | – | – | – | – | – | fold lower Kd for calcium (vs Oregon Green) [9]: ~ 20 fold
